One assay deals with HBE cells. The experiment in a line: Apoptosis, sub-G1 quantification by flow cytometry in HBE cells. The class given is cell-based, human. The following applies: 96 h. The method, then:
(§1) After seeding, cells were cultured for 24 h in serum and phenol red free medium. Then treatments were carried out in a phenol red free medium containing 5% dextran-charcoal stripped serum. Cells were treated with P or DEX (100 nM), alone or in combination with UPA, RU (1 nM to 1 μM) or CDB-3877 (100 nM). Control cells were treated with ethanol, at […] 1:1000 final ethanol concentration alone as vehicle or E2 (10 nM).
(§2) After 96 h or 48 h of hormonal treatment, respectively, for HBE or MCF-7 and T-47D cells, cells were washed in PBS, matrix dissociated with accutase enzyme (PAA laboratory, Les Mureaux, France), and centrifuged 5 minutes at 1350 rpm. Cells were fixed and frozen at −20° C. in 70% ethanol. Before analysis, cells were washed in PBS and stained with 10 μg/ml propidium iodide in PBS (containing 0.835 U/ml RNase A) (Sigma, St Quentin Fallavier, France). For each sample at least 10 000 cells were counted in a BD LSR II flow cytometer (BD Biosciences, Le Pont de Claix, France). After gating out doublets and debris, cycle distribution was analyzed using the ModFit LT software (Verity Software House, USA).
A general note: In flow cytometry, cells or beads pass a laser one at a time.

In another assay the test system is T-47D cells. The experiment in a line: Tritiated thymidine incorporation (proliferation) in T-47D cells. The format is cell-based, human. As to conditions: 48 h. The method, then:
as §1
After 24 h of hormonal treatment, cells were incubated with [methyl-1 3H] thymidine (Perkin Elmer, Courtaboeuf, France) for 48 h or 20 h for KBE or cancer cells, respectively at 37° C. After incubation cells were washed twice with PBS 1× and once with 5% trichloroacetic acid (TCA). Cells were incubated in 5% TCA for 15 min at 4° C. and lysed in NaOH 0.1 N for 30 min at 37° C. The total cell lysate was added to 5 ml of Ecolite scintillation liquid (MP biomedical, Illkirch, France) and radioactivity was counted with a β-counter HIDEX 300SL (ScienceTec, Courtaboeuf, France).
(Dividing cells build labelled thymidine or BrdU into new DNA.)

Assay [1] concerns GR target genes (IEX-1, G0S8, cyclin A, BCL2). The assay can be described thus: qRT-PCR mRNA expression of GR target genes in HBE cells. The class given is cell-based, human. The method, then:
as §1
Total RNA was extracted using TriZOL Reagent (Invitrogen, Cergy-Pontoise, France).
2 μg of total RNA was subjected to reverse transcription (RT) using random primers for 1 h at 37° C. 2 μl of RT product was diluted (1:10) and subjected to quantitative PCR using sequence specific primers (300 nM) and Brillant SYBR GREEN QPCR master mix (Fermentas, Saint-Rémy-lès-Chevreuse, France) on an Mx3000P apparatus (Agilent Technologies, Massy, France). Conditions were 1 cycle at 95° C. for 10 min followed by 40 cycles at 95° C. for 30 sec, 60° C. for 1 min and 72° C. for 30 sec. Gene expression values were normalized to the housekeeping gene 36B4. Time of steroid treatment was chosen to get the optimal stimulation for a given gene. ALPL and G0S8 mRNA were analyzed after 6 h of treatment. IEX-1, FASN, and BCL2 were analyzed after 24 h of treatment. Cyclin A mRNA was analyzed after 24 h for GR responses or 48 h for PR responses.
(In general: In qPCR the cycle at which signal appears reflects the starting amount.)

In assay [2] the test system is normal human breast tissues xenografts. The assay can be described thus: Ki67 mitotic index in normal human breast tissue xenografted in athymic mice. The class given is in vivo. The following applies: E2+P+UPA vs E2 and E2+P groups, lobules and ducts, UPA 20 mg pellet, 28 days. An excerpt: Breast tissues samples were obtained from 6 women (aged 29-42 years) undergoing surgery for reduction mammoplasty, with their informed consent according to the French law on clinical experimentation.
Four weeks old ovariectomized female NMRInu/nu 20 athymic mice were purchased from Janvier laboratory (Le Genest Saint Isle, France). Breast tissues samples were obtained from 6 women (aged 29-42 years). Human mammary gland tissue was cut into 2×2×2 mm fragments and 4 fragments were then subcutaneously xenografted onto the back of 4 mice per group. Four treatment groups were performed: control, E2, E2+P and E2+P+UPA. Treatments were administered by grafting steroid pellets onto the neck of each mouse. The experimental conditions were initially determined by using a dose range of hormones mixed with cholesterol into the pellets. Blood sample assays were performed after 2 weeks and 4 weeks of treatment to measure plasmatic hormonal concentrations. Finally, the dose of 0.3 mg for E2 and 20 mg for P and UPA were used, as it provides the expected blood concentrations. For the control groups, pellets containing only cholesterol were used. To reproduce menstrual cycle conditions, mice were grafted on the first day of experiment with cholesterol, E2 and/or UPA containing pellets and on the fourteen day with cholesterol or progesterone containing pellets in control and E2 groups, or in E+P and E2+P+UPA groups, respectively. Twenty eight days after the start of experiment, mice were sacrificed. Blood was collected for each mouse, and serum was frozen at −20° C. until hormone concentrations
Mitotic index was calculated using the Ki67 antibody, and was determined for each breast tissue grafted into mice. Immunohistochemical analyses were performed using the BOND-MAX workstation (Leica, Nanterre, France). Paraffin sections of breast tissue xenografts were de-waxed and rehydrated before antigen retrieval using citrate retrieval solution (pH 6.0) for Ki67 antibody or EDTA retrieval solution (pH 9.0) for PR and ERalpha antibodies, for 30 min. […]

For a further assay, the system named is MCF-7 cells. The experiment in a line: Apoptosis, sub-G1 quantification by flow cytometry in MCF-7 cells. The format is cell-based, human. The following applies: 48 h. The protocol:
as §1, §2

For the compound `CC(=O)O[C@]1(C(C)=O)CCC2C3CCC4=CC(=O)CCC4=C3[C@@H](c3ccc(N(C)C)cc3)C[C@@]21C` (stereo partly shown) [UPA, 17[…]-acetoxy-11[…]-[4-N,N-dimethylamino-phenyl)-19-norpregna-4,9-diene-3,20-dione], the “cell apoptosis (sub-G1 percentage), compound alone” value in the assay on HBE cells (100 nM) is listed as “had no apoptotic or survival properties by itself”. In addition, in the assay with HBE cells (DEX 100 nM + UPA 100 nM), the “effect of UPA on DEX-mediated anti-apoptotic effect” value was “both hormones activities were reversed”. Moreover, in the assay on HBE cells (P 100 nM + UPA 100 nM), the “effect of UPA on P-mediated apoptosis” value is given as “both hormones activities were reversed”. In addition, the “cell proliferation ([3H] thymidine incorporation), compound alone” value with T-47D cells (100 nM) is on record as “had no effect on proliferation”. For the same compound, the “effect of UPA on P-mediated proliferation change” value with T-47D cells (P 100 nM + UPA 100 nM) was “reversed P anti-proliferative activity”. Also, in assay [1] (DEX and/or UPA 100 nM, 6 h), the “G0S8 mRNA expression” value was “slight and non-significant antagonist effect”. In addition, in assay [1] (DEX and/or UPA 100 nM, 24 h), the “BCL2 mRNA expression (GR response)” value is “did not reverse the DEX down-regulation of BCL2 mRNA”, the “IEX-1 mRNA expression” value is reported as “did not antagonize this response” and the “cyclin A mRNA expression (GR response)” value is “partially inhibited DEX effect on cyclin A mRNA expression”. Further, the “glucocorticoid agonist activity on GR target genes” value in assay [1] (UPA 100 nM alone) is on record as “did not display any glucocorticoid agonist activity”. In assay [2], the “proliferation rate (Ki67) of normal epithelial breast cells” value is given as “does not significantly influence the proliferation rate”. For the same compound, the “cell apoptosis (sub-G1 percentage), compound alone” value in the assay with MCF-7 cells (100 nM) is “had no apoptotic or survival properties by itself”. Further, in the assay with MCF-7 cells (DEX 100 nM + UPA 100 nM), the “effect of UPA on DEX-mediated apoptosis” value is “totally inhibited by UPA”.

The values are drawn from patent publication US9814732B2, “Ulipristal acetate for prevention and treatment of breast tumors” (LABORATOIRE HRA-PHARMA, priority 2012, dated 2017).
